The results in this text go back to patent publication US20090220469A1, “PEPTIDES AGAINST AUTOANTIBODIES ASSOCIATED WITH GLAUCOMA AND USE OF THESE PEPTIDES” (MAX-DELBRUECK-CENTRUM FUER MOLEKULARE MEDIZIN, priority 2006, published 2009).

This assay deals with agonistic autoantibodies against the β2 adrenergic receptor (immunoglobulin fraction of POAG patients). Put plainly: Neutralization of agonistic autoantibodies by synthetic peptides, beating rate of spontaneously beating neonatal rat cardiomyocytes. It counts as cell-based. Conditions: for recognition of epitopes by the antibodies: 5 overlapping peptides of loop II of the β2 adrenergic receptor, FIG. 6; for effect on the antibody-induced increase in the spontaneous beating rate: immunoglobulins of 5 patients with POAG preincubated with short, overlapping peptides of the second extracellular loop of the β2 receptor, neonatal rat cardiomyocytes; for blocking of the stimulating effect of the antibodies by extracellular loop peptides: immunoglobulins from 6 POAG patients preexposed to peptides of the first, second and third extracellular β2 receptor loops, 0.5 μg peptide in 50 μl. How it is done:
Preparation of the immunoglobulin fraction. The immunoglobulin fraction was isolated from 1- to 2-ml serum samples by ammonium sulfate precipitation at a saturation of 40%. The precipitates were washed and dissolved in dialysis buffer (154 mmol/l NaCl, 10 mmol/l sodium phosphate; pH 7.2). The procedure of precipitating, washing, and dissolving was repeated twice.
Finally, the immunoglobulins were taken up in 1 ml PBS (pH 7.2) and dialyzed at 4° C. for 30 hours against 1 l of dialysis buffer. The buffer was changed five times during dialysis. For detection of autoantibodies, the immunoglobulin fractions were added at a dilution of 1:20 or 1:40 to the flasks.
After the dialysis, the IgG fractions feature a concentration of 10-15 mg/ml, a maximum of 10 μg/ml of which are specific receptor antibodies. 50 μl of this IgG solution are pre-incubated with the peptides with the following concentration of peptides: 5 μl of a buffered solution of 100 μg/ml per 50 μl IgG solution. This mixture is pre-incubated at room temperature for 30 minutes and subsequently filled into the cell culture vials, after the former nutrient solution has been removed by pipet. The amount of the medium is 2 ml. The final concentration therefore is of […] for the IgG and 0.5 μg for the peptides. If the molecular weight of the peptide (10 mer) is set with 1 KD and that of the IgG is set with 150 KD, there is an […].
For the neutralization experiments, synthetic peptides corresponding to the sequence of the three extracellular loops of the human β2 adrenegic receptor was added in excess (0.5 μg in 50 μl) to 50 μl of the immunoglobulin fraction. The mixtures were shaken and incubated at room temperature for 1 h. The 100-μl samples were then added to neonatal rat heart muscle cells cultured in 2 ml medium to a final dilution of 1:40. The beating rate was counted for 15 s, 60 min after the addition of the peptide/immunoglobulin mixture.
For identifying the autoantibody neutralizing epitopes synthetic overlapping peptides corresponding to the sequence of the second extracellular loop of the human β2 adrenoceptor was added to the immunoglobulins. After 1 h incubation at room temperature the samples were used as described above.

As for AINCYAN [Ala-Ile-Asn-Cys-Tyr-Ala-Asn], the “recognition of epitopes by the antibodies” value was “Antibodies recognize the epitopes” and the “effect on the antibody-induced increase in the spontaneous beating rate” value is given as “abolished the increase in the spontaneous beating rate in all 5 patients tested”.

“loop II peptide: synthetic peptide corresponding to the sequence of the second extracellular loop of the human β2 adrenergic receptor (HWYRATHQEAINCYANETCCDFFTNQ)”: the “blocking of the stimulating effect of the antibodies by extracellular loop peptides” value is reported as “blocks the antibody activity to stimulate the rat cardiomyocytes”. Moreover, the “blocking of the stimulating effect of the antibodies by extracellular loop peptides” value (listed as peptides from the second extracellular loop) is recorded as “blocked the effect”.

For ANETCCD [Ala-Asn-Glu-Thr-Cys-Cys-Asp], the “recognition of epitopes by the antibodies” value is recorded as “Antibodies recognize the epitopes” and the “effect on the antibody-induced increase in the spontaneous beating rate” value is given as “abolished the increase in the spontaneous beating rate in all 5 patients tested”.
